Source: ChEMBL document CHEMBL5385872, “Design and syntheses of a bimolecular STING agonist based on the covalent STING antagonist” (Eur J Med Chem, 2023)
The source made the active and inactive calls.

What was measured:
[1] = biological target: Stimulator of interferon genes protein (Homo sapiens) (UniProt Q86WV6); test: Induction of STING-dependent gene expression in human HT-1080 cells assessed as IFNalpha mRNA expression at 20 uM incubated for 8 hrs by qRT-PCR analysis; assay type: cell-based; conditions: filed as agonist
Stimulator of interferon genes protein (Homo sapiens), sequence (Q86WV6 whole entry): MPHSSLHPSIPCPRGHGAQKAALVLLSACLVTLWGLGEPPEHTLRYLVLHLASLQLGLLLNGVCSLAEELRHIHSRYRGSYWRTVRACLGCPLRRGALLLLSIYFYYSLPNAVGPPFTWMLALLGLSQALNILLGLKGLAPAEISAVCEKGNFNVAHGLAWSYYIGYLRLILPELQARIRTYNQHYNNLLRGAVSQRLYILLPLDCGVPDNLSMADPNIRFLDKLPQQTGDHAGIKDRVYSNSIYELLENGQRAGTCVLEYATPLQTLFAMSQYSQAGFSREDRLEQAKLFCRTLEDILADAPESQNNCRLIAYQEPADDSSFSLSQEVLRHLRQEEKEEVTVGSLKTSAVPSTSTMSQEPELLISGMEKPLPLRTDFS

[2] = biological target: T1, Stimulator of interferon genes protein (Mus musculus) (UniProt Q3TBT3); test: Induction of STING-dependent gene expression in mouse BMDC cells assessed as IFNbeta mRNA expression at 20 uM incubated for 8 hrs by qRT-PCR analysis; assay type: cell-based; conditions: filed as agonist
T1 sequence (whole entry): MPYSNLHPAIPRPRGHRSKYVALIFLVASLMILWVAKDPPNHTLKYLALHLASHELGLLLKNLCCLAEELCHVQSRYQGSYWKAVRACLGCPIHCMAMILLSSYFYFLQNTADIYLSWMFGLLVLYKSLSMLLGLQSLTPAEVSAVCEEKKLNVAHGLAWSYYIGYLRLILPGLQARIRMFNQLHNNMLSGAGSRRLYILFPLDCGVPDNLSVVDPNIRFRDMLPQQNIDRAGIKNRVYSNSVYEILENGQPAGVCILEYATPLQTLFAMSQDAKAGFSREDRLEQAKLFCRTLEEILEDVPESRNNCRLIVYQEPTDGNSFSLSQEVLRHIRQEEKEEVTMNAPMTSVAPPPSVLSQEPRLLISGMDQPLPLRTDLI

[3] = biological target: T1, Stimulator of interferon genes protein (Mus musculus); test: Induction of STING dimerization in mouse BMDC cells assessed as dimerization (initially increase and then decreased) at 2.5 to 20 uM measured after 5 hrs by Western blot analysis; assay type: cell-based; conditions: filed as agonist, dose 2.5-20 µM
[4] = biological target: T1, Stimulator of interferon genes protein (Mus musculus); test: Induction of STING-dependent gene expression in mouse BMDC cells assessed as IFNalpha mRNA expression at 20 uM incubated for 8 hrs by qRT-PCR analysis; assay type: cell-based; conditions: filed as agonist
Mus musculus [5] = test: Induction of immune-activation effect in wild type female BALB/c mouse assessed as increase in serum IFNbeta level at 15 to 30 mg/kg, ip measured after 24 to 48 hrs by ELISA relative to control; assay type: functional, organism-based; conditions: dose 15-30 mg/kg, time 24-48 hrs
[6] = biological target: Stimulator of interferon genes protein (Homo sapiens) (UniProt Q86WV6); test: Induction of oligomerization of STING in HEK-293T cells stably expressing STING-Flag ( unknown origin) measured after 4 hrs by immunoprecipitation assay; assay type: cell-based; conditions: filed as agonist
[7] = biological target: T1, Stimulator of interferon genes protein (Mus musculus); test: Agonist activity at STING in mouse BMDM cells assessed as change in TBK1 phosphorylation (initially increase and then decreased) at 20 uM measured after 5 hrs by Western blot analysis; assay type: cell-based; conditions: filed as agonist
Mus musculus [8] = test: Induction of immune-activation effect in wild type female BALB/c mouse assessed as increase in serum TNFalpha level at 15 to 30 mg/kg, ip measured after 24 to 48 hrs by ELISA relative to control; assay type: functional, organism-based; conditions: dose 15-30 mg/kg, time 24-48 hrs
[9] = biological target: Stimulator of interferon genes protein (Homo sapiens) (UniProt Q86WV6); test: Induction of STING-dependent gene expression in human HT-1080 cells assessed as IFNbeta mRNA expression at 20 uM incubated for 8 hrs by qRT-PCR analysis; assay type: cell-based; conditions: filed as agonist
[10] = biological target: T1, Stimulator of interferon genes protein (Mus musculus); test: Agonist activity at STING in mouse BMDC cells assessed as change in TBK1 phosphorylation (initially increase and then decreased) at 20 uM measured after 5 hrs by Western blot analysis; assay type: cell-based; conditions: filed as agonist
[11] = biological target: T1, Stimulator of interferon genes protein (Mus musculus); test: Induction of STING dimerization in mouse BMDM cells assessed as dimerization (initially increase and then decreased) at 2.5 to 20 uM measured after 5 hrs by Western blot analysis; assay type: cell-based; conditions: filed as agonist, dose 2.5-20 µM
HT-1080 [12] = test: Induction of TBK1 phosphorylation in human HT1080 cells at 20 uM measured after 5 hrs by Western blot analysis; assay type: functional, cell-based
HT-1080 [13] = test: Induction of TBK1 phosphorylation in STING - knockout human HT1080 cells at 20 uM measured after 5 hrs by Western blot analysis; assay type: functional, cell-based

Measured: Activity

O=C(NCCCCCCCNC(=O)c1ccc([N+](=O)[O-])o1)c1ccc([N+](=O)[O-])o1
not listed: HT-1080 [12] | HT-1080 [13]
active: all other assays above

O=C(NCCNCCNC(=O)c1ccc([N+](=O)[O-])s1)c1ccc([N+](=O)[O-])s1
active: HT-1080 [12] | HT-1080 [13]

O=C(NCCCCCCCCCNC(=O)c1ccc([N+](=O)[O-])o1)c1ccc([N+](=O)[O-])o1
not listed: Mus musculus [5] | Mus musculus [8] | HT-1080 [12] | HT-1080 [13]
active: all other assays above

O=C(NCCCCCCCCNC(=O)c1ccc([N+](=O)[O-])o1)c1ccc([N+](=O)[O-])o1
not listed: HT-1080 [12] | HT-1080 [13]
active: all other assays above
